Measurements as given in patent US20220213524A1, “KINASE SCREENING ASSAYS” (University of Newcastle upon Tyne, priority 2019, published 2022).

Columns and labels:
Format in all cases: cell-based
INCENP TSSph = assay: Immunofluorescence microscopy and high content imaging of INCENP TSSph after acute kinase inhibition in nocodazole-arrested mitotic cells; settings: over 9 minutes; nocodazole-arrested mitotic HeLa cells, MG132 included
Text: (§1) To confirm that Cyclin B1-Cdk1 was a bona fide kinase for INCENP S446, the inventors first conducted in vitro kinase assays. Indeed, Cyclin B1-Cdk1 efficiently phosphorylated S446 on a recombinant INCENP fragment containing residues 369-583, but not the TSS motif (S893/S894) in recombinant INCENP residues 825-918. In contrast, Aurora B was able to phosphorylate its known target, the TSS motif of INCENP, but not S446 (FIG. 4B). Furthermore, INCENP immunoprecipitated from nocodazole-arrested mitotic cells was recognized by the INCENP S446ph antibody, and this phosphorylation was sensitive to the Cdk inhibitor Roscovitine (FIG. 14). However, determining the direct substrates of Cyclin B1-Cdk1 in cells is complicated because inhibition of Cdk1 prevents mitotic entry and/or forces mitotic exit, leading to indirect effects on multiple kinase substrates. […] Aurora B relocates to the spindle midzone at the end of mitosis so, as an additional way to focus on cells still in mitosis, the inventors analyzed only cells in which Aurora B remained on chromosomes. […] Also consistent with Cyclin B1-Cdk1 being the kinase responsible, INCENP S446ph was detected on chromosomes in mitotic cells from early mitosis until metaphase when Cyclin B1-Cdk is active, but was lost at anaphase when Cyclin B is degraded (FIG. 4D). […]

INCENP S446ph [1] = assay: Immunofluorescence microscopy and high content imaging of INCENP S446ph after acute kinase inhibition in nocodazole-arrested mitotic cells; settings: nocodazole-arrested mitotic HeLa cells, MG132 included
Text: as §1

INCENP S446ph [2] = assay: INCENP immunoprecipitation from nocodazole-arrested mitotic HeLa 1C8 cells and immunoblotting with INCENP S446ph antibody; settings: 100 μM, 2 h, with 20 μM MG132; nocodazole-arrested mitotic HeLa 1C8 cells; immunoblot
Method: HeLa 1C8 cells (Dai et al., 2005) were treated with 0.5 μg/ml nocodazole for 8 h. After collecting mitotic cells by “shake off” and replating, either 100 μM Roscovitine or DMSO (vehicle control) was added together with 20 μM MG132 in the continued presence of nocodazole. After 2 h, cell lysates were prepared in 50 mM Tris, 0.3 M NaCl, 0.5% Triton X-100, 10 mM MgCl2, 5 mM EDTA, 1 mM dithiothreitol, 1 mM PMSF, 0.1 μM okadaic acid, 10 mM NaF, 20 mM β-glycerophosphate, 0.25 U/μl benzonase nuclease, cOmplete™ Mini EDTA-free Protease Inhibitor and subjected to immunoprecipitation with rabbit anti-INCENP and Dynabeads Protein G (ThermoFisher). After washing, bound proteins were eluted by boiling in SDS-PAGE sample buffer.
SDS-PAGE was carried out using the NuPAGE Bis-Tris system (ThermoFisher). Proteins were transferred onto PVDF membranes using standard techniques. Membranes were blocked with 2.5% milk in PBS, 0.1% Tween20 for 1 h, then with primary antibodies in 2.5% milk, PBS, 0.1% Tween20 overnight at 4° C. After washing 3 times with PBS, 0.1% Tween20, they were incubated for 1 h with secondary antibodies in 2.5% milk, PBS, 0.1% Tween20, washed three times with PBS, 0.1% Tween20 and once with PBS, before development using ECL substrate (Pierce) and exposure to X-ray film. Stripping of immunoblots was carried out with Restore Western Blot Stripping Buffer (ThermoFisher).

Row | Compound | effect on INCENP TSSph (Aurora B phosphorylation site) (INCENP TSSph) | reduction in intensity of INCENP S446ph (INCENP S446ph [1]; over 9 minutes, only cells with Aurora B on chromosomes) | sensitivity of INCENP S446 phosphorylation to inhibitor (INCENP S446ph [2]) | effect on INCENP S446ph (INCENP S446ph [1]; over the same time period (9 minutes))
1 | O=C1NC(=NCc2cccs2)S/C1=C\c1ccc2ncccc2c1 [RO-3306] | unaffected | 50% |  | 
2 | CC[C@H](CO)Nc1nc(NCc2ccccc2)c2ncn(C(C)C)c2n1 [Roscovitine] |  |  | sensitive | 
3 | COc1cc2c(Nc3ccc(NC(=O)c4ccccc4)cc3)ncnc2cc1OCCCN1CCOCC1 [ZM447439] | rapid decline |  |  | did not influence
